In US20150071918A1, “PEPTIDES FOR THE TREATMENT OF CANCER” (H. LEE MOFFITT CANCER CENTER AND RESEARCH INSTITUTE, INC., priority 2012, published 2015):
*1 amine or outer side, *2 acyl side, *3 side chain or, on linkers, in order; H or OH if unused. Where a SMILES comes first, the peptide text is derived from it. Bridges are numbered along the chain shown (N, C = ends). [ ]: non-standard residue; d: D form. The star is where a group is joined. dProlinol(O-CH2CO) = O=C(COC[C@H]1CCCN1[*:1])[*:2]; N(2-Aminoethyl)Gly = O=C(CN(CCN[*:3])[*:1])[*:2]; Nle = CCCC[C@H](N)C(=O)O; Ms = CS(=O)(=O)*

How the values were obtained:
H929 myeloma cells = format: cell-based, human; conditions: H929 cells
Procedure, shortened: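 Cells exposed to a peptide concentration series for 24 h; cell death read by Topro-3 staining and FACS. IC50 from linear regression of dose-response curves, mean of 3 independent experiments.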

[1] = test system: normal CD34-positive cells; experiment: Cell death in CD34+ cells from normal individuals; format: cell-based, human; conditions: 24 hours
Protocol: FIG. 45. Primary CD34+AML cells are sensitive to HM-27 (MTI-101) while their normal counterparts are not. Enriched CD34+ cells from peripheral blood and bone marrow of normal individuals were treated with varying doses of HM-27 for 24 hours and then analyzed for cell death as described in the Materials and Methods.
FIG. 64. MTI-101 induces cell death in primary CD34 progenitor cells from AML patient. […] CD34-positive cells were enriched using immunomagnetic beads in primary AML samples and normal bone marrow aspirates. Cell death was measured by annexin V positivity and FACS analysis.
Cells were collected after incubation with HM-27 and analyzed for markers of cell death indicative of either apoptosis, autophagy or necrosis. BM-MNCs were isolated from marrow aspirates of AML patients and normal individuals by Ficoll-Paque centrifugation and further enriched for CD34+ cells using immunomagnetic beads. Cell death was assessed by TO-PRO-3 staining followed by FACS analysis.

[2] = test system: phospho-ERK and CD44-associated PYK2 in NCI-H929 and U266 MM cells; experiment: Signal transduction in MM cells (pErk, CD44 immunoprecipitation probed for Pyk2, Src); format: cell-based; conditions: 5 uM H929 and 10 uM U226 cells
Protocol: FIGS. 55A-55D. […] NCI-H929 and U266 were treated with 5 uM and 10 uM HM-27 respectively for various time points before whole cell lysis in RIPA buffer and probed for pErk and tErk (FIGS. 55A, 55B).
FIGS. 58A-58D. […] MTI-101 activates ERK and Pyk2. Member of these pathways can be utilized as biomarkers of response. In addition, agents that target survival pathways can be used in combination with MTI-101 (data supporting this in AML).
The inventors performed a total membrane binding assay with biotin conjugated HYD1 and NeutrAvidin beads on NCI-H929 and U266 MM cells. Samples were then loaded on an SDS-PAGE gel, trypsin digested, and analyzed by Liquid Chromatography-Mass Spectrometry/Mass Spectrometry (LC-MS/MS). The adhesion receptor CD44 was determined to be among the adhesion receptors that had the most peptide match hits and was confirmed as a valid hit via Western Blot analysis using biotin as a control for non-specific binding. In order to assess the binding between CD44 and HYD1, 96-well NeutrAvidin coated plates were preincubated with biotin-HYD1 before the addition of increasing concentrations of full length recombinant human CD44. For more quantitative binding affinity analysis we produced the human globular ectodomain of CD44 comprising of amino acids 20-178. […]

In the case of `CCCC[C@@H]1NC(=O)CN(S(C)(=O)=O)CCNC(=O)[C@H](CCCCN)NC(=O)[C@H](CC(C)C)NC(=O)[C@H](CCCCN)NC(=O)[C@H](CC(C)C)NC(=O)[C@H](CCCCN)NC(=O)COC[C@H]2CCCN2C(=O)[C@H](Cc2c[nH]c3ccccc23)NC(=O)[C@H](C)NC(=O)[C@H](C(C)C)NC(=O)[C@H](C(C)C)NC1=O` [MTI-101] (Ms-[N(2-Aminoethyl)Gly][Nle]VVAW[dProlinol(O-CH2CO)]KLKLK; lactam 1-C), the IC50 (H929 myeloma cells; read-out: IC50) is reported as 1.2 µM, the “fold more potent than linear HYD1” value (H929 myeloma cells; reference of the 10- and 15-fold statements not expressly named) is reported as 30 fold and the “cell death in normal CD34+ cells” value [1] is reported as “devoid of activity in normal CD34-positive cells”. The “cell death in normal CD34+ cells” value ([1]; listed as HM-27) was “CD34+ cells from normal individuals are not sensitive to HM-27” and the “phospho-ERK and CD44-associated PYK2 in MM cells” value [2] was “induces transient phospho-ERK and CD44-associated PYK2 complex in NCI-H929 and U266 MM cells”.
